Where “and” joins values, the source holds several entries; their conditions need not be identical. Identical values can stand only once.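 Briefly, cells in 96-well plates were exposed to five compound concentrations for 48 h, and endpoints were estimated by linear interpolation. The concentration for 50% growth inhibition is given as GI50.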 Calls of active or inactive are those of the source. Rule as the data show it: active = GI50 up to about 1.1 µM and inactive = higher.
Assays:
Assay in all cases: NCI-60 cell line screen, 48 h
T47D = tested on: T47D
SK-OV-3 = tested on: SK-OV-3
M14 = tested on: M14
NCI-H23 = tested on: NCI-H23
LOX IMVI = tested on: LOX IMVI
SK-MEL-2 = tested on: SK-MEL-2
SF-295 = tested on: SF-295
ACHN = tested on: ACHN
BT-549 = tested on: BT-549
SNB-75 = tested on: SNB-75
SK-MEL-28 = tested on: SK-MEL-28
NCI-H226 = tested on: NCI-H226
OVCAR-3 = tested on: OVCAR-3
EKVX = tested on: EKVX
CCRF-CEM = tested on: CCRF-CEM
OVCAR-5 = tested on: OVCAR-5
TK-10 = tested on: TK-10
U-251 = tested on: U-251
HOP-62 = tested on: HOP-62
Malme-3M = tested on: Malme-3M

Measured: GI50

CC1=CCC[C@H]2[C@](C)(CC3=CC(=O)C(SCC(C)C)=CC3=O)[C@@H](C)CC[C@]12C
inactive: T47D 2.25 µM | SK-OV-3 19.5 µM | M14 18.2 µM | NCI-H23 8.99 µM | LOX IMVI 7.41 µM | SK-MEL-2 15.9 µM | SF-295 16.1 µM | ACHN 15.6 µM | BT-549 17.6 µM | SNB-75 10.9 µM | SK-MEL-28 15.8 µM | NCI-H226 11.8 µM | OVCAR-3 17.4 µM | EKVX 16.7 µM | CCRF-CEM 1.79 µM | OVCAR-5 18.5 µM | TK-10 16.7 µM | U-251 14.3 µM | HOP-62 14.6 µM

COc1ccc(N[C@H](C[S+]([O-])c2ccc(C)cc2)c2ccc(F)cc2)cc1 (some centres not stated)
inactive: T47D 10.3 µM | SK-OV-3 72.3 µM | M14 64.3 µM | NCI-H23 13.2 µM | LOX IMVI > 100 µM | SK-MEL-2 > 100 µM | SF-295 41.8 µM | ACHN 52.6 µM | BT-549 > 100 µM | SNB-75 27.2 µM | SK-MEL-28 > 100 µM | OVCAR-3 > 100 µM | EKVX > 100 µM | Malme-3M 31.9 µM | CCRF-CEM > 100 µM | OVCAR-5 > 100 µM | TK-10 > 100 µM | U-251 44.5 µM | HOP-62 33.7 µM

O=C(Nc1nc2ccc([N+](=O)[O-])cc2s1)c1cc([N+](=O)[O-])ccc1Cl
inactive: T47D 3.57 µM | SK-OV-3 2.94 µM | NCI-H23 2.3 µM | LOX IMVI 2.05 µM | SF-295 3.4 µM | ACHN 3.2 µM | BT-549 2.24 µM | SNB-75 2.22 µM | NCI-H226 1.31 µM | OVCAR-3 1.59 µM | EKVX 2.81 µM | Malme-3M 3.01 µM | OVCAR-5 4.26 µM | TK-10 3.8 µM | U-251 2.95 µM | HOP-62 3 µM

C[C@]12c3c4cc(NC(=O)C(=O)NCc5ccc(-c6ccccn6)nc5)cc3Oc3cc(NC(=O)C(=O)NCc5ccc(-c6ccccn6)nc5)cc(c31)OC1C=C(NC(=O)C(=O)NCc3ccc(-c5ccccn5)nc3)C=C(O4)C12 (some centres not stated)
inactive: T47D 26.7 µM | SK-OV-3 17 µM | M14 98.2 µM | LOX IMVI 17.6 µM | SK-MEL-2 38.7 µM | SF-295 25.4 µM | ACHN 14.3 µM | BT-549 > 100 µM | SNB-75 16.4 µM | SK-MEL-28 95.1 µM | NCI-H226 29.6 µM | OVCAR-3 35.6 µM | EKVX 11.5 µM | CCRF-CEM 16.6 µM | OVCAR-5 > 100 µM | TK-10 > 100 µM | U-251 84.9 µM | HOP-62 > 100 µM

COc1ccccc1[S+]([O-])Nc1ccccc1 (configuration not stated)
inactive: T47D 11.9 µM | NCI-H23 > 100 µM | LOX IMVI 71.9 µM | SK-MEL-2 34 µM | SF-295 > 100 µM | ACHN 87.7 µM | BT-549 17.4 µM | SK-MEL-28 > 100 µM | NCI-H226 > 100 µM | OVCAR-3 > 100 µM | EKVX > 100 µM | Malme-3M > 100 µM | CCRF-CEM 54.5 µM | OVCAR-5 > 100 µM | TK-10 > 100 µM | U-251 41.6 µM | HOP-62 > 100 µM

[N-]=[N+]=NC1=C(c2ccccc2)C(=O)c2cccc3cccc1c23
inactive: T47D 5.12 µM | SK-OV-3 25.8 µM | M14 8.3 µM | NCI-H23 24.9 µM | LOX IMVI 14.4 µM | SK-MEL-2 65 µM | SF-295 11.2 µM | ACHN 6.01 µM | BT-549 8.17 µM | SNB-75 10.2 µM | SK-MEL-28 33.3 µM | OVCAR-3 16.4 µM | Malme-3M 18.8 µM | CCRF-CEM 4.85 µM | OVCAR-5 48.5 µM | TK-10 23.2 µM | U-251 > 100 µM | HOP-62 15.2 µM

O=C(/C=C/c1ccsc1)c1cccs1
inactive: T47D 20 µM | SK-OV-3 39.1 µM | M14 22.8 µM | NCI-H23 22.5 µM | SF-295 64.7 µM | ACHN 52.1 µM | BT-549 20.8 µM | SNB-75 > 100 µM | SK-MEL-28 20.9 µM | NCI-H226 > 100 µM | OVCAR-3 22.1 µM | EKVX 41.3 µM | Malme-3M 50 µM | CCRF-CEM 18.5 µM | OVCAR-5 44.1 µM | TK-10 23.1 µM | U-251 20.5 µM | HOP-62 > 100 µM

c1ccc(-c2nc3ccccc3n3nnnc23)cc1
inactive: T47D 20.2 µM | SK-OV-3 > 100 µM | M14 > 100 µM | NCI-H23 > 100 µM | LOX IMVI > 100 µM | SK-MEL-2 > 100 µM | ACHN > 100 µM | BT-549 > 100 µM | SK-MEL-28 > 100 µM | NCI-H226 > 100 µM | OVCAR-3 > 100 µM | EKVX 11.5 µM | Malme-3M > 100 µM | CCRF-CEM > 100 µM | OVCAR-5 > 100 µM | TK-10 > 100 µM | U-251 > 100 µM | HOP-62 63.5 µM

CC1CCC2(C(=O)O)CCC3(C)C(=CCC4C5(C)CCC(O)C(C)(C)C5CCC43C)C2C1C (configuration not stated)
inactive: T47D 14.2 µM | SK-OV-3 18.2 µM and 15.5 µM | M14 2.16 µM | NCI-H23 18.5 µM and 11.9 µM | LOX IMVI 4.13 µM and 6.59 µM | SK-MEL-2 11.2 µM and 15.9 µM | SF-295 3.3 µM and 3.22 µM | BT-549 19 µM | NCI-H226 19.7 µM and 11.1 µM | OVCAR-3 7.52 µM and 13.8 µM | EKVX 10.6 µM and 13.8 µM | Malme-3M 15.1 µM and 14 µM | OVCAR-5 11.1 µM and 10.6 µM | TK-10 19.7 µM | U-251 9.68 µM and 17.8 µM | HOP-62 16.5 µM and 9.33 µM

Sc1nnc(-c2ccccc2Nc2ccccc2-c2nnc(S)n2-c2ccccc2)n1-c1ccccc1
inactive: T47D 23.9 µM | M14 40.8 µM | NCI-H23 34.4 µM | LOX IMVI 42.5 µM | SK-MEL-2 27 µM | SF-295 43.1 µM | ACHN 38.3 µM | BT-549 28.1 µM | SNB-75 37.5 µM | SK-MEL-28 19.5 µM | NCI-H226 29.7 µM | OVCAR-3 56.6 µM | EKVX 32.4 µM | CCRF-CEM 32.5 µM | OVCAR-5 47.9 µM | TK-10 52.8 µM | U-251 30.1 µM | HOP-62 58.5 µM

O=C(NN1C(=O)CSC1c1ccco1)c1ccncc1 (configuration not stated)
inactive: T47D > 100 µM | SK-OV-3 > 100 µM | M14 > 100 µM | NCI-H23 > 100 µM | SK-MEL-2 > 100 µM | SF-295 > 100 µM | ACHN > 100 µM | BT-549 > 100 µM | SK-MEL-28 > 100 µM | NCI-H226 > 100 µM | OVCAR-3 > 100 µM | EKVX > 100 µM | Malme-3M > 100 µM | CCRF-CEM > 100 µM | OVCAR-5 > 100 µM | TK-10 > 100 µM | U-251 > 100 µM | HOP-62 > 100 µM

O=C(C[C@@H]1CCCN2CCCC[C@H]12)N1c2ccccc2Sc2ccc(Cl)cc21
inactive: T47D 20.5 µM | M14 4.95 µM | NCI-H23 14.7 µM | LOX IMVI 13.7 µM | SF-295 19.5 µM | ACHN 14.2 µM | BT-549 14.7 µM | SNB-75 13.8 µM | SK-MEL-28 13.2 µM | NCI-H226 27.6 µM | OVCAR-3 16.2 µM | EKVX 19.1 µM | Malme-3M 16.2 µM | CCRF-CEM 15 µM | OVCAR-5 13.4 µM | TK-10 20 µM | U-251 12.1 µM | HOP-62 13 µM

Cc1cc2c(cc1Cl)Sc1nnc(C)n1S2(=O)=O
inactive: T47D 8.18 µM | SK-OV-3 26.6 µM | M14 14 µM | NCI-H23 12.9 µM | LOX IMVI 10.1 µM | SF-295 15.7 µM | ACHN 11.9 µM | BT-549 14.1 µM | SNB-75 13.3 µM | SK-MEL-28 16.9 µM | NCI-H226 30.2 µM | OVCAR-3 12.6 µM | EKVX 16 µM | Malme-3M 8.67 µM | CCRF-CEM 8.53 µM | OVCAR-5 29.2 µM | TK-10 15.6 µM | U-251 15.1 µM | HOP-62 20 µM

CC/C(C)=C1\OC(=O)C(C)C(O)C(Cc2cccnc2)NC(=O)C(NC(=O)c2ncccc2O)C(C)OC1=O (configuration not stated)
inactive: T47D > 100 µM | SK-OV-3 71.9 µM | M14 70.6 µM | NCI-H23 > 100 µM | LOX IMVI > 100 µM | SK-MEL-2 > 100 µM | SF-295 44.4 µM | ACHN 6.7 µM | BT-549 > 100 µM | SNB-75 51.6 µM | SK-MEL-28 > 100 µM | OVCAR-3 > 100 µM | EKVX 31.3 µM | Malme-3M 39.5 µM | OVCAR-5 > 100 µM | TK-10 > 100 µM | U-251 > 100 µM | HOP-62 51.1 µM

CC(Oc1ccc(Oc2cnc3ccc(Cl)cc3n2)cc1)C(=O)O (configuration not stated)
inactive: T47D 84.1 µM | SK-OV-3 > 100 µM | M14 > 91.6 µM | NCI-H23 > 76.4 µM | LOX IMVI 51.6 µM | SK-MEL-2 > 88.5 µM | SF-295 > 89.9 µM | ACHN 60 µM | BT-549 > 73.1 µM | SNB-75 84.5 µM | SK-MEL-28 > 76.7 µM | OVCAR-3 > 84.5 µM | EKVX > 99.8 µM | Malme-3M > 45 µM | TK-10 > 95.9 µM | U-251 > 63.7 µM | HOP-62 > 74.5 µM
